From patent publication US4327097A, “Novel penicillins” (Toyama Chemical Co., Ltd., priority 1974, dated 1982)
Converted amounts (≈) assume the structure as drawn.

Key:
mouse = test: Toxicity, LD50 i.v. in mouse; assay type: in vivo; conditions: i.v. in mouse having a weight of 19±1 g
Source text: The present penicillins and cephalosporins have generally low toxicity.

[1] = tested on: β-lactamase, Pseudomonas aeruginosa GN 238; test: Resistant activity against β-lactamase, iodometric assay; assay type: biochemical; conditions: β-lactamase from Pseudomonas aeruginosa GN 238; Potassium Penicillin G = 100
Method in brief: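 Crude β-lactamase was the sonicated-cell supernatant from P. aeruginosa GN 238, grown 6 h at 37 °C and washed in 0.1 M phosphate pH 7.0. Compound stability to the enzyme measured iodometrically; values are relative activity with potassium penicillin G set at 100.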

Proteus rettgeri = test: MIC against clinical isolates; assay type: cell-based; conditions: unit assumed
Salmonella typhi-murium = test: MIC against clinical isolates; assay type: cell-based; conditions: Table 5-5, clinical isolate; unit assumed
Klebsiella pneumoniae [2] = test: MIC against clinical isolates; assay type: cell-based; conditions: unit assumed
[3] = tested on: Staphylococcus aureus 209p; test: MIC, plate method, standard strains; assay type: cell-based; conditions: unit assumed
Method in brief: (§1)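 Agar plate dilution on Heart infusion agar (pH 7.4); inoculum 10^4 cells per plate from a 10^6 cells/ml suspension. MIC taken as the lowest concentration inhibiting growth.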

Escherichia coli NIHJ = test: MIC, plate method, standard strains; assay type: cell-based; conditions: unit assumed
Method in brief: as §1

Proteus vulgaris 3027 = test: MIC, plate method, standard strains; assay type: cell-based; conditions: unit assumed
Method in brief: as §1

[4] = tested on: Pseudomonas aeruginosa I.F.O.; test: MIC, plate method, standard strains; assay type: cell-based; conditions: unit assumed
Method in brief: as §1

Klebsiella pneumoniae [5] = test: MIC, plate method, standard strains; assay type: cell-based; conditions: unit assumed
Method in brief: as §1

Escherichia coli = test: MIC against clinical isolates; assay type: cell-based; conditions: unit assumed
Shigella flexneri = test: MIC against clinical isolates; assay type: cell-based; conditions: Table 5-5, clinical isolate; unit assumed
Protocol: (§2) The minimum inhibitory concentration (MIC) was determined by the plate method disclosed in "Chemotherapy" (Japan), Vol. 16, (1968), pages 98-99. The culture medium used was a Heart infusion agar (pH 7.4). The number of the cells per plate used in the inoculum was 10^4 (10^6 cells/ml).
(§3) MIC was determined in the same manner as in the preceding paragraph (1).

Shigella sonnei = test: MIC against clinical isolates; assay type: cell-based; conditions: Table 5-5, clinical isolate; unit assumed
Protocol: as §2, §3

Proteus mirabilis = test: MIC against clinical isolates; assay type: cell-based; conditions: unit assumed
Staphylococcus aureus = test: MIC against clinical isolates; assay type: cell-based; conditions: unit assumed
Proteus vulgaris = test: MIC against clinical isolates; assay type: cell-based; conditions: unit assumed
Pseudomonas aeruginosa = test: MIC against clinical isolates; assay type: cell-based; conditions: unit assumed; for MIC Pseudomonas aeruginosa GN: strain number not given
[6] = target: β-lactamase, Escherichia freundii GN 346 (Citrobacter freundii, UniProt Q46041); test: Resistant activity against β-lactamase, iodometric assay; assay type: biochemical; conditions: control Cephalorizine = 100
Chain of β-lactamase, Escherichia freundii GN 346 (Q46041 entry or part of it): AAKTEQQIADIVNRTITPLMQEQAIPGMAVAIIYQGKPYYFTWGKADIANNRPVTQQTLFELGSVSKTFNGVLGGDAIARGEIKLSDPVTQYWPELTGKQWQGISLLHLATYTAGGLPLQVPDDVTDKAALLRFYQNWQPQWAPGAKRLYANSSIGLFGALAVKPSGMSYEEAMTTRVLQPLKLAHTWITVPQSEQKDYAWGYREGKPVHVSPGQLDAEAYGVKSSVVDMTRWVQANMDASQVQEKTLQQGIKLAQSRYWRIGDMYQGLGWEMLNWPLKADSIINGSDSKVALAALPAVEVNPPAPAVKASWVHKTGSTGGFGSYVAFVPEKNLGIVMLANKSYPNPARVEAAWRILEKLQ
Method in brief: (§4)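 β-Lactamase was induced with Penicillin G (50 μg/ml) in shaking cultures at 37° C, and crude enzyme was taken as sonicated-cell supernatant in 0.1 M phosphate buffer pH 7.0. Compound stability was measured iodometrically. Values are relative activity, with control Cephalorizine set as 100.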

[7] = target: T1, β-lactamase, Proteus vulgaris GN 76 (Proteus vulgaris, UniProt P52664); test: as above; assay type: biochemical; conditions: control Cephalorizine = 100
T1 construct: By using the supernatant of enzyme fluid; endogenous in cells; host or cells: Proteus vulgaris GN 76 (penicillin G-induced cells, sonicated, 15,000 r.p.m. supernatant)
T1 sequence (P52664 30-300): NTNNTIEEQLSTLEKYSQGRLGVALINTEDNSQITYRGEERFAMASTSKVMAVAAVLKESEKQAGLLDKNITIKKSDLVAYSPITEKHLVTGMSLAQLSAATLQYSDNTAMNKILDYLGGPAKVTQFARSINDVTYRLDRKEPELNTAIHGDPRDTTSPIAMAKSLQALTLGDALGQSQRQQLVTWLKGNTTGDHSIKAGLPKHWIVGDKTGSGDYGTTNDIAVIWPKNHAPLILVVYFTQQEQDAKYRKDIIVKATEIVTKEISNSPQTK
Method in brief: as §4

Proteus morganii = test: MIC against clinical isolates; assay type: cell-based; conditions: Table 6-5, clinical isolate; unit assumed

**Q.** CCN1CCN(C(=O)N[C@@H](C(=O)N[C@@H]2C(=O)N3[C@@H]2SC(C)(C)[C@@H]3C(=O)O)c2ccccc2)C(=O)C1=O was tested. Which LD50 (mouse) did it give?
**A.** greater than 5 g/kg

**Q.** What does the source list for CC(C)N1CCN(C(=O)NC(C(=O)NC2C(=O)N3C2SC(C)(C)C3C(=O)O)c2ccccc2)C(=O)C1=O (single isomer, unassigned) [Compound 40]?
**A.** Relative activity (%), resistant activity against β-lactamase [1]: 15%; MIC Proteus rettgeri (Proteus rettgeri; Table 5-6, clinical isolate): 6.25 µg/mL (≈ 11.8 µM); MIC Salmonella typhi-murium SL 2136 (Salmonella typhi-murium): > 200 µg/mL; MIC Klebsiella pneumoniae GN 917 (Klebsiella pneumoniae [2]; Table 5-4, clinical isolate): 6.25 µg/mL (≈ 11.8 µM); MIC Klebsiella pneumoniae GN 4081 (Klebsiella pneumoniae [2]; Table 5-4, clinical isolate): 100 µg/mL (≈ 188 µM); MIC Klebsiella pneumoniae GN 4117 (Klebsiella pneumoniae [2]; Table 5-4, clinical isolate): 50 µg/mL (≈ 94.1 µM); MIC Staphylococcus aureus 209p ([3]; Table 3, standard strain, Heart infusion agar pH 7.4): 0.4 µg/mL (≈ 0.752 µM); MIC Esche--richin coil NIHJ (Escherichia coli NIHJ; Table 3, standard strain): < 0.1 µg/mL; MIC Proteus vulgaris 3027 (Proteus vulgaris 3027; Table 3, standard strain): 0.4 µg/mL (≈ 0.752 µM); MIC Pseudomonas aeruginosa I.F.C ([4]; Table 3, standard strain): 6.25 µg/mL (≈ 11.8 µM); MIC Klebsiella pneumoniae (Klebsiella pneumoniae [5]; Table 3, standard strain): 3.13 µg/mL (≈ 5.89 µM); MIC Escherichia coli GN 3452 (Escherichia coli; Table 5-2, clinical isolate): 1.57 µg/mL (≈ 2.95 µM); MIC Escherichia coli GN 3465 (Escherichia coli; Table 5-2, clinical isolate): 50 µg/mL (≈ 94.1 µM); MIC Escherichia coli GN 3481 (Escherichia coli; Table 5-2, clinical isolate): 1.57 µg/mL (≈ 2.95 µM); MIC Escherichia coli GN 3611 (Escherichia coli; Table 5-2, clinical isolate): > 200 µg/mL; MIC Escherichia coli K-1 (Escherichia coli; Table 5-2, clinical isolate): 1.57 µg/mL (≈ 2.95 µM); MIC Escherichia coli K-2 (Escherichia coli; Table 5-2, clinical isolate): 3.13 µg/mL (≈ 5.89 µM); MIC Escherichia coli K-3 (Escherichia coli; Table 5-2, clinical isolate): > 200 µg/mL; MIC Shigella flexneri JS 11215 (Shigella flexneri): 50 µg/mL (≈ 94.1 µM); MIC Shigella flexneri JS 11839 (Shigella flexneri): 3.13 µg/mL (≈ 5.89 µM); MIC Shigella sonnei JS 11232 (Shigella sonnei): 50 µg/mL (≈ 94.1 µM); MIC Shigella sonnei JS 11755 (Shigella sonnei): 3.13 µg/mL (≈ 5.89 µM); MIC Proteus mirabilis (Proteus mirabilis; Table 5-6, clinical isolate): < 0.4 µg/mL; MIC Staphylococcus aureus F-1 (Staphylococcus aureus; Table 5-1, clinical isolate): 6.25 µg/mL (≈ 11.8 µM); MIC Staphylococcus aureus F-2 (Staphylococcus aureus; Table 5-1, clinical isolate): 3.13 µg/mL (≈ 5.89 µM); MIC Staphylococcus aureus F-4 (Staphylococcus aureus; Table 5-1, clinical isolate): 6.25 µg/mL (≈ 11.8 µM); MIC Staphylococcus aureus F-5 (Staphylococcus aureus; Table 5-1, clinical isolate): > 200 µg/mL; MIC Staphylococcus aureus MS 8588 (Staphylococcus aureus; Table 5-1, clinical isolate): 3.13 µg/mL (≈ 5.89 µM); MIC Staphylococcus aureus MS 8596 (Staphylococcus aureus; Table 5-1, clinical isolate): 3.13 µg/mL (≈ 5.89 µM); MIC Staphylococcus aureus MS 8684 (Staphylococcus aureus; Table 5-1, clinical isolate): 3.13 µg/mL (≈ 5.89 µM); MIC Proteus vulgaris (Proteus vulgaris; Table 5-6, clinical isolate): < 0.4 µg/mL; MIC Pseudomonas aeruginosa GN (Pseudomonas aeruginosa; Table 5-3, clinical isolate): 6.25 µg/mL (≈ 11.8 µM); MIC Pseudomonas aeruginosa GN 82 (Pseudomonas aeruginosa; Table 5-3, clinical isolate): 6.25 µg/mL (≈ 11.8 µM); MIC Pseudomonas aeruginosa GN 163 (Pseudomonas aeruginosa; Table 5-3, clinical isolate): 6.25 µg/mL (≈ 11.8 µM); MIC Pseudomonas aeruginosa GN 221 (Pseudomonas aeruginosa; Table 5-3, clinical isolate): 6.25 µg/mL (≈ 11.8 µM); MIC Pseudomonas aeruginosa GN 376 (Pseudomonas aeruginosa; Table 5-3, clinical isolate): 3.13 µg/mL (≈ 5.89 µM); MIC Pseudomonas aeruginosa GN 383 (Pseudomonas aeruginosa; Table 5-3, clinical isolate): 6.25 µg/mL (≈ 11.8 µM); MIC Pseudomonas aeruginosa GN 1091 (Pseudomonas aeruginosa; Table 5-3, clinical isolate): 6.25 µg/mL (≈ 11.8 µM); MIC Pseudomonas aeruginosa GN 2987 (Pseudomonas aeruginosa; Table 5-3, clinical isolate): 3.13 µg/mL (≈ 5.89 µM)

**Q.** What does the source list for CCN1CCN(C(=O)NC(C(=O)NC2C(=O)N3C(C(=O)O)=C(CSc4nnnn4C)CSC23)c2ccc(O)cc2)C(=O)C1=O (stereo not drawn) [Compound No. 72]?
**A.** MIC Proteus rettgeri (Proteus rettgeri; Table 6-5, clinical isolate): 1.56 µg/mL (≈ 2.42 µM); MIC Klebsiella pneumoniae GN 917 (Klebsiella pneumoniae [2]; Table 6-4, clinical isolate): 0.2 µg/mL (≈ 0.31 µM); MIC Klebsiella pneumoniae GN 4081 (Klebsiella pneumoniae [2]; Table 6-4, clinical isolate): 1.56 µg/mL (≈ 2.42 µM); MIC Staphylococcus aureus 209p ([3]; Table 4, standard strain): < 1.57 µg/mL; MIC Escherichia coli NIHJ (Escherichia coli NIHJ; Table 4, standard strain): < 0.1 µg/mL; MIC Proteus vulgaris 3027 (Proteus vulgaris 3027; Table 4, standard strain): 0.4 µg/mL (≈ 0.62 µM); MIC Pseudomonas aeruginosa I.F.O. ([4]; Table 4, standard strain): 6.25 µg/mL (≈ 9.68 µM); MIC Klebsiella pneumoniae (Klebsiella pneumoniae [5]; Table 4, standard strain): < 0.1 µg/mL; Relative activity (%) against β-lactamase, E. freundii GN 346 [6]: 0.2%; Relative activity (%) against β-lactamase, Pr. vulgaris GN 76 [7]: 7%; MIC Escherichia coli GN 3435 (Escherichia coli; Table 6-2, clinical isolate): 0.1 µg/mL (≈ 0.155 µM); MIC Escherichia coli GN 3452 (Escherichia coli; Table 6-2, clinical isolate): 0.2 µg/mL (≈ 0.31 µM); MIC Escherichia coli GN 3465 (Escherichia coli; Table 6-2, clinical isolate): 1.56 µg/mL (≈ 2.42 µM); MIC Escherichia coli K-2 (Escherichia coli; Table 6-2, clinical isolate): 0.39 µg/mL (≈ 0.604 µM); MIC Escherichia coli K-4 (Escherichia coli; Table 6-2, clinical isolate): 0.39 µg/mL (≈ 0.604 µM); MIC Proteus mirabilis (Proteus mirabilis; Table 6-5, clinical isolate): 0.78 µg/mL (≈ 1.21 µM); MIC Staphylococcus aureus F-1 (Staphylococcus aureus; Table 6-1, clinical isolate): 1.56 µg/mL (≈ 2.42 µM); MIC Staphylococcus aureus MS 8588 (Staphylococcus aureus; Table 6-1, clinical isolate): 1.56 µg/mL (≈ 2.42 µM); MIC Staphylococcus aureus MS 8596 (Staphylococcus aureus; Table 6-1, clinical isolate): 3.13 µg/mL (≈ 4.85 µM); MIC Staphylococcus aureus MS 8619 (Staphylococcus aureus; Table 6-1, clinical isolate): 1.56 µg/mL (≈ 2.42 µM); MIC Staphylococcus aureus MS 8684 (Staphylococcus aureus; Table 6-1, clinical isolate): 1.56 µg/mL (≈ 2.42 µM); MIC Proteus morganii (Proteus morganii): 0.78 µg/mL (≈ 1.21 µM); MIC Proteus vulgaris (Proteus vulgaris; Table 6-5, clinical isolate): 0.39 µg/mL (≈ 0.604 µM); MIC Pseudomonas aeruginosa GN (Pseudomonas aeruginosa; Table 6-3, clinical isolate): 12.5 µg/mL (≈ 19.4 µM); MIC Pseudomonas aeruginosa GN4 (Pseudomonas aeruginosa; Table 6-3, clinical isolate): 12.5 µg/mL (≈ 19.4 µM); MIC Pseudomonas aeruginosa GN 82 (Pseudomonas aeruginosa; Table 6-3, clinical isolate): 6.25 µg/mL (≈ 9.68 µM); MIC Pseudomonas aeruginosa GN 221 (Pseudomonas aeruginosa; Table 6-3, clinical isolate): 6.25 µg/mL (≈ 9.68 µM); MIC Pseudomonas aeruginosa GN 376 (Pseudomonas aeruginosa; Table 6-3, clinical isolate): 6.25 µg/mL (≈ 9.68 µM); MIC Pseudomonas aeruginosa GN 1035 (Pseudomonas aeruginosa; Table 6-3, clinical isolate): 25 µg/mL (≈ 38.7 µM); MIC Pseudomonas aeruginosa GN 1091 (Pseudomonas aeruginosa; Table 6-3, clinical isolate): 6.25 µg/mL (≈ 9.68 µM); MIC Pseudomonas aeruginosa GN 2565 (Pseudomonas aeruginosa; Table 6-3, clinical isolate): 25 µg/mL (≈ 38.7 µM); MIC Pseudomonas aeruginosa S-1 (Pseudomonas aeruginosa; Table 6-4, clinical isolate): 12.5 µg/mL (≈ 19.4 µM)
